Results on nine compounds are retold here after patent publication US9637516B2, “Betulinic acid proline derivatives as HIV inhibitors” (HETERO RESEARCH FOUNDATION, priority 2012, dated 2017).

By AUC(0-t) is commonly meant the area under the concentration-time curve up to a stated or last time point. A lower AUC(0-t) goes with less exposure. By Cmax is commonly meant the maximum level reached in the sampled fluid or tissue. As usually defined, the Tmax is the time at which the peak concentration occurs. By inhibition is commonly meant how much of the control response was suppressed. In general, IC50 refers to the concentration needed to halve the response being measured. By AUC(0-inf) is commonly meant the area under the concentration-time curve extrapolated to infinity. A lower AUC(0-inf) goes with less exposure. By half-life is commonly meant the time needed for the level to fall by half in the phase considered.

A short description of data set [1]: Single dose oral pharmacokinetic study. The class given is in vivo, mice. Conditions: mouse, plasma. The procedure: The test item was administered through oral route to animals (rat/mice) at 30 mg/kg dose in a suitable vehicle at 10 ml/kg dose volume. Blood samples (˜50 uL at each time point) were collected from retro-orbital plexus using K3 EDTA as anticoagulant in eppendorf tubes at defined time intervals under light ether anesthesia. The samples were centrifuged at 3500×g to separate plasma and stored at −80° C. until analysis.
Sample analysis: Test samples were analyzed using LC-MS-MS after developing fit-for-purpose method for each of test compound.

The subject of another data set is HIV-1 strain 92HT599. As to the kind of experiment: Antiviral activity: p24 estimation in MT2 cells infected with HIV-1 strain 92HT599. The data set is classed as cell-based. The settings on record: for inhibition at 0.1 µM: Human immunodeficiency virus 1, 100 nM; for inhibition at 0.1 µM / inhibition at 1 µM: HIV-1 92HT599, p24, ~96 hours; for inhibition at 1 µM: Human immunodeficiency virus 1, 1000 nM; for IC50: Human immunodeficiency virus 1, HIV-1 92HT599, p24. The procedure: MT2 cells were infected with HIV-1 strain 92HT599 (10 TCID 50/30000 cells). The infected cells were plated at the concentration of ˜30 000 cells per well in 96 well plate. Test compound was added to the micro plate in defined format with the final concentration of DMSO (vehicle) is not more than 1%. Incubation was carried out in CO2 incubator for ˜96 hours for viral infection. At the end of incubation period an aliquot from each well was taken for p24 estimation. The quantitation of p24 is an index for antiviral activity of the compound. Percent inhibition was calculated with reference to control values (vehicle controls). p-24 estimation was carried out using Advance biosciences kit as per the procedure detailed by supplier.

The mark [2] stands for this setting: Mice oral PK @30 mg/kg (Table 3).
The mark [3] stands for this setting: Mice oral PK @30 mg/kg (Table 4).

With `C=C(C)[C@@H]1CC[C@]2(C(=O)N3CCC[C@@H]3c3nc(-c4cccnc4)no3)CC[C@]3(C)[C@H](CC[C@@H]4[C@@]5(C)CC[C@H](OC(=O)CC(C)(C)CC(=O)O)C(C)(C)[C@@H]5CC[C@]43C)[C@@H]12` [Compound 4, 3,3-dimethyl-5-oxo-5-((1R,3aS,5aR,5bR,7aR,9S,11aR,11bR,13aR,13bR)-5a,5b,8,8,11a-pentamethyl-1-(prop-1-en-2-yl)-3a-((R)-2-(3-(pyridin-3-yl)-1,2,4-oxadiazol-5-yl)pyrrolidine-1-carbonyl)icosahydro-1H-cyclopenta[a]chrysen-9-yloxy)pentanoic acid], in data set [1] (setting [2]), the AUC(0-t) turned out to be 36.9 µg·h/mL, the Cmax was determined as 4830 ng/mL and the Tmax turned out to be 2.5 h. Besides, in the data set on HIV-1 strain 92HT599, the inhibition at 0.1 µM is 84%, the inhibition at 1 µM was 96% and the IC50 was 8.64 nM.
In data set [1] (setting [3]), `C=C(C)[C@@H]1CC[C@]2(C(=O)N3CCCC3c3ncc(-c4ccc(OC)cc4)[nH]3)CC[C@]3(C)[C@H](CC[C@@H]4[C@@]5(C)CC[C@H](OC(=O)[C@H]6C[C@@H](C(=O)O)C6(C)C)C(C)(C)[C@@H]5CC[C@]43C)[C@@H]12` (some centres unmarked) [Compound 15] gave an AUC(0-inf) of 446 µg·h/mL, an AUC(0-t) of 286 µg·h/mL, a Cmax of 11400 ng/mL and a half-life of 30.9 h. In the data set with HIV-1 strain 92HT599, the inhibition at 0.1 µM is 98% and the inhibition at 1 µM is 97%.
`C=C(C)[C@@H]1CC[C@]2(C(=O)N3CCC[C@H]3c3ncc(-c4ccccc4)[nH]3)CC[C@]3(C)[C@H](CC[C@@H]4[C@@]5(C)CC[C@H](OC(=O)[C@@H]6C[C@H](C(=O)O)C6(C)C)C(C)(C)[C@@H]5CC[C@]43C)[C@@H]12` [Compound 27, (1S,3R)-2,2-dimethyl-3-((((1R,3aS,5aR,5bR,7aR,9S,11aR,11bR,13aR,13bR)-5a,5b,8,8,11a-pentamethyl-3a-((S)-2-(5-phenyl-1H-imidazol-2-yl)pyrrolidine-1-carbonyl)-1-(prop-1-en-2-yl)icosahydro-1H-cyclopenta[a]chrysen-9-yl)oxy)carbonyl)cyclobutane-1-carboxylic acid]: in data set [1] (setting [3]), the AUC(0-inf) worked out at 535 µg·h/mL, the AUC(0-t) is 231 µg·h/mL, the highest level (Cmax) was 10100 ng/mL and the half-life was 38.1 h. Further, in the data set on HIV-1 strain 92HT599, the IC50 was 11 nM.
In data set [1] (setting [3]), `CC(C)(CC(=O)O[C@H]1CC[C@]2(C)[C@H]3CC[C@@H]4[C@H]5[C@H](C6(C)CC6)CC[C@]5(C(=O)N5CCC[C@H]5c5ncc(-c6cccnc6)[nH]5)CC[C@@]4(C)[C@]3(C)CC[C@H]2C1(C)C)C(=O)O` [Compound 30, 2,2-dimethyl-4-oxo-4-(((1R,3aS,5aR,5bR,7aR,9S,11aR,11bR,13aR,13bR)-5a,5b,8,8,11a-pentamethyl-1-(1-methylcyclopropyl)-3a-((S)-2-(5-(pyridin-3-yl)-1H-imidazol-2-yl)pyrrolidine-1-carbonyl)icosahydro-1H-cyclopenta[a]chrysen-9-yl)oxy)butanoic acid] gave an AUC(0-inf) of 57.8 µg·h/mL, an AUC(0-t) of 54.6 µg·h/mL, a Cmax of 6400 ng/mL and a half-life of 1.7 h. Moreover, in the data set with HIV-1 strain 92HT599, the IC50 was 3.83 nM.
The matching figures for `CC(C)(CC(=O)O)CC(=O)O[C@H]1CC[C@]2(C)[C@H]3CC[C@@H]4[C@H]5[C@H](C6(C)CC6)CC[C@]5(C(=O)N5CCCC5c5ncc(-c6cccnc6)[nH]5)CC[C@@]4(C)[C@]3(C)CC[C@H]2C1(C)C` (some centres unmarked) [Compound 31]: 145 µg·h/mL, 136 µg·h/mL, 9300 ng/mL, 10.9 h and 1.62 nM.
The matching figures for `CC(C)(CC(=O)O[C@H]1CC[C@]2(C)[C@H]3CC[C@@H]4[C@H]5[C@H](C6(C)CC6)CC[C@]5(C(=O)N5CCC[C@H]5c5ncc(-c6ccc(F)cc6)[nH]5)CC[C@@]4(C)[C@]3(C)CC[C@H]2C1(C)C)C(=O)O` [Compound 33, 4-(((1R,3aS,5aR,5bR,7aR,9S,11aR,11bR,13aR,13bR)-3a-((S)-2-(5-(4-fluorophenyl)-1H-imidazol-2-yl)pyrrolidine-1-carbonyl)-5a,5b,8,8,11a-pentamethyl-1-(1-methylcyclopropyl)icosahydro-1H-cyclopenta[a]chrysen-9-yl)oxy)-2,2-dimethyl-4-oxobutanoic acid]: 152 µg·h/mL, 88.7 µg·h/mL, 4400 ng/mL, 32.1 h and 9.5 nM.
The matching figures for `C=C(C)[C@@H]1CC[C@]2(C(=O)N3CCC[C@H]3c3ncc(-c4ccc(F)cc4)[nH]3)CC[C@]3(C)[C@H](CC[C@@H]4[C@@]5(C)CC[C@H](OC(=O)CC(C)(C)C(=O)O)C(C)(C)[C@@H]5CC[C@]43C)[C@@H]12` [Compound 34, 4-(((1R,3aS,5aR,5bR,7aR,9S,11aR,11bR,13aR,13bR)-3a-((S)-2-(5-(4-fluorophenyl)-1H-imidazol-2-yl)pyrrolidine-1-carbonyl)-5a,5b,8,8,11a-pentamethyl-1-(prop-1-en-2-yl)icosahydro-1H-cyclopenta[a]chrysen-9-yl)oxy)-2,2-dimethyl-4-oxobutanoic acid]: 263 µg·h/mL, 224 µg·h/mL, 13300 ng/mL, 16.1 h and 17 nM.
In the case of `C=C(C)[C@@H]1CC[C@]2(C(=O)N3CCC[C@H]3c3ncc(-c4ccc(F)cc4)[nH]3)CC[C@]3(C)[C@H](CC[C@@H]4[C@@]5(C)CC[C@H](OC(=O)C6CC(C(=O)O)C6(C)C)C(C)(C)[C@@H]5CC[C@]43C)[C@@H]12` (stereo partly drawn) [Compound 35, 3-((((1R,3aS,5aR,5bR,7aR,9S,11aR,11bR,13aR,13bR)-3a-((S)-2-(5-(4-fluorophenyl)-1H-imidazol-2-yl)pyrrolidine-1-carbonyl)-5a,5b,8,8,11a-pentamethyl-1-(prop-1-en-2-yl)icosahydro-1H-cyclopenta[a]chrysen-9-yl)oxy)carbonyl)-2,2-dimethylcyclobutane-1-carboxylic acid], in data set [1] (setting [3]), the AUC(0-inf) was determined as 655 µg·h/mL, the AUC(0-t) came to 410 µg·h/mL, the Cmax came out at 16000 ng/mL and the half-life is 34.2 h. The IC50 in the data set on HIV-1 strain 92HT599 is 74 nM.
The matching figures for `CC(C)(CC(=O)O[C@H]1CC[C@]2(C)[C@H]3CC[C@@H]4[C@H]5[C@H](C6(C)CC6)CC[C@]5(C(=O)N5CCC[C@H]5c5ncc(-c6cccs6)[nH]5)CC[C@@]4(C)[C@]3(C)CC[C@H]2C1(C)C)C(=O)O` [Compound 38]: 119 µg·h/mL, 110 µg·h/mL, 7000 ng/mL, 12.3 h and 8.4 nM.
